ChEMBL document CHEMBL1143097, “Allosteric inhibitors of Akt1 and Akt2: a naphthyridinone with efficacy in an A2780 tumor xenograft model” (Bioorg Med Chem Lett, 2008)
The source made the active and inactive calls. The rule behind the calls is not given here.

Tests used:
[1] = Inhibition of PKA
[2] = target: T1, RAC-alpha serine/threonine-protein kinase (Homo sapiens, UniProt P31749); assay: Inhibition of Akt1 by cell-based assay
[3] = target: T2, RAC-beta serine/threonine-protein kinase (Homo sapiens, UniProt P31751); assay: Inhibition of Akt2
T2 sequence (P31751 whole entry): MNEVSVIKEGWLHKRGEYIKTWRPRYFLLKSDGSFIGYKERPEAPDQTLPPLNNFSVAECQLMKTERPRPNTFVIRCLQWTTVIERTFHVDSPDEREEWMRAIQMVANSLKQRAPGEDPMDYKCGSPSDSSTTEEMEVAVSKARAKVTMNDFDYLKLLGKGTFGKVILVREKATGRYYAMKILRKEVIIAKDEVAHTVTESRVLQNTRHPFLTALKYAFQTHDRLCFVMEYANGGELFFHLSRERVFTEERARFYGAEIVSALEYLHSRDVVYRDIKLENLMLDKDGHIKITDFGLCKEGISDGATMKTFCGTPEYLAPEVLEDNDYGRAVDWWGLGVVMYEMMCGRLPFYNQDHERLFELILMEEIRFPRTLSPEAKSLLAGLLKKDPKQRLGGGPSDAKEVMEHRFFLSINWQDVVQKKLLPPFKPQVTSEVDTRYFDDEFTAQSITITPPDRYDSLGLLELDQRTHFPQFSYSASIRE

[4] = Inhibition of SGK
[5] = target: T2, RAC-beta serine/threonine-protein kinase; assay: Inhibition of Akt2 by cell-based assay
[6] = target: T1, RAC-alpha serine/threonine-protein kinase; assay: Inhibition of Akt1
[7] = Inhibition of PKC
[8] = Distribution coefficient, log D of the compound; assay type: physicochemical; conditions: octanol/water
[9] = target: RAC-gamma serine/threonine-protein kinase (Homo sapiens, UniProt Q9Y243); assay: Inhibition of Akt3
Chain of RAC-gamma serine/threonine-protein kinase (Q9Y243 whole entry): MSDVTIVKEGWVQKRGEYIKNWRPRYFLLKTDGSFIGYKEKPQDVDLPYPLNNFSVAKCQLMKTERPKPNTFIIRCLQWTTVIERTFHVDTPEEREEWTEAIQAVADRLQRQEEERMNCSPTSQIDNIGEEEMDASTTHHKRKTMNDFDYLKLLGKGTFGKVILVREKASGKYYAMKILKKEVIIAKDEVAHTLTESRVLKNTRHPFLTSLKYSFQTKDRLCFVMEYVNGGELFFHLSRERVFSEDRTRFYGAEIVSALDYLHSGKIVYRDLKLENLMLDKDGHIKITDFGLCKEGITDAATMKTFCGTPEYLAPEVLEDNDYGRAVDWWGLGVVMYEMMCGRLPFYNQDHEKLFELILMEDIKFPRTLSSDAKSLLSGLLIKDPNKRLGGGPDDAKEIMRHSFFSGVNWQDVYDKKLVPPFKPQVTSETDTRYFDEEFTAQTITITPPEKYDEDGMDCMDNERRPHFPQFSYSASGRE

[10] = Drug concentration in mouse blood at 50 mg/kg, ip administered three times a day after 16 hrs; assay type: ADME, organism-based; parameters: dose 50 mg/kg, route intraperitoneal; conditions: whole blood, read-out: Drug uptake
Mus musculus [11] = assay: Inhibition of AKT1 in A2780 cells xenografted mouse lung tissue at 50 mg/kg, twice daily after 2 hrs by IP kinase assay; assay type: functional; conditions: route intraperitoneal
Mus musculus [12] = assay: Inhibition of AKT2 in A2780 cells xenografted mouse lung tissue at 50 mg/kg, twice daily after 2 hrs by IP kinase assay; assay type: functional; conditions: route intraperitoneal
[13] = target: Voltage-gated inwardly rectifying potassium channel KCNH2 (Homo sapiens, UniProt Q12809); assay: Inhibition of human ERG
Chain of Voltage-gated inwardly rectifying potassium channel KCNH2 (Q12809 whole entry): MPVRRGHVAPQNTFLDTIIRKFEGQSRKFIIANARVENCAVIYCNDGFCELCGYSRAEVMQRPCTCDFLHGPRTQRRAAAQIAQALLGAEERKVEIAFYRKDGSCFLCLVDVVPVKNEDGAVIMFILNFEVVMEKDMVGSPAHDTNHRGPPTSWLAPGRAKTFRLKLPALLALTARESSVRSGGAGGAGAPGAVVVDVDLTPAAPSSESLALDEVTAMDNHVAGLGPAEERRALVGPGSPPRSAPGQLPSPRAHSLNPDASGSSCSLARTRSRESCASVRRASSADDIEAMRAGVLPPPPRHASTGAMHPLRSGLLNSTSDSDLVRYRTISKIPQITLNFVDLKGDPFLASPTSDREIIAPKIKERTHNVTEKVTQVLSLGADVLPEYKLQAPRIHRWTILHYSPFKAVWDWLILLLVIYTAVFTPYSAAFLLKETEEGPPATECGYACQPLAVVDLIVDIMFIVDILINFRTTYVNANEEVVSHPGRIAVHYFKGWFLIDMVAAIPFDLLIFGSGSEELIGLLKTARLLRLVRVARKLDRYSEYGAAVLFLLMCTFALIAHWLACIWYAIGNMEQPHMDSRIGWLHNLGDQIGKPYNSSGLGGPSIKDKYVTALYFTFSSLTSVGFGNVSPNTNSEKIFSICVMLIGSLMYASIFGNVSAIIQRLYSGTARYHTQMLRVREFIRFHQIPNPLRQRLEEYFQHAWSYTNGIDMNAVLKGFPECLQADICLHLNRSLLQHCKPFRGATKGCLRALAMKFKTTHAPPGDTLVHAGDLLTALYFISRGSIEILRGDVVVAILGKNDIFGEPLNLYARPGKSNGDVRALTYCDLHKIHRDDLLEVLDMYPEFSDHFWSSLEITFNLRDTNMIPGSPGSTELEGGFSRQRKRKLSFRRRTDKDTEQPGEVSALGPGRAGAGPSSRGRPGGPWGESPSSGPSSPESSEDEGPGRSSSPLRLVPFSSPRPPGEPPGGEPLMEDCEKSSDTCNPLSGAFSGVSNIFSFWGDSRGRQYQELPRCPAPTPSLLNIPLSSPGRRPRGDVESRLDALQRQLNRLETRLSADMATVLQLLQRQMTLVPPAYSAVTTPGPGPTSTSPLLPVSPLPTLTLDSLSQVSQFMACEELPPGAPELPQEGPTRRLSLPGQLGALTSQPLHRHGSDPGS

Mus musculus [14] = assay: Inhibition of Akt2 in mouse lung at 50 mg/kg, ip administered three times a day after 24 hrs by IP kinase assay; assay type: functional; parameters: scale not given: the % may be the effect or the level left; conditions: route intraperitoneal
[15] = Half life in rat; assay type: ADME, organism-based; conditions: in vivo
Homo sapiens = species: Homo sapiens; assay: Protein binding in human plasma; conditions: read-out: PB (converted)
A2780 = assay: Antitumor activity in human A2780 cells xenografted mouse assessed as decrease in tumor weight at 50 mg/kg, sc administered three times a day twice a week for five cycles; assay type: functional, organism-based; parameters: dose 50 mg/kg
[16] = Drug concentration in mouse blood at 50 mg/kg, ip administered three times a day after 24 hrs; assay type: ADME, organism-based; parameters: dose 50 mg/kg, route intraperitoneal; conditions: whole blood, read-out: Drug uptake
[17] = Clearance in rat; assay type: ADME, organism-based; conditions: in vivo
Mus musculus [18] = assay: Inhibition of Akt1 in mouse lung at 50 mg/kg, ip administered three times a day after 24 hrs by IP kinase assay; assay type: functional; parameters: scale not given: the % may be the effect or the level left; conditions: route intraperitoneal
Mus musculus [19] = assay: Inhibition of Akt2 in mouse lung at 50 mg/kg, ip administered three times a day after 16 hrs by IP kinase assay; assay type: functional; parameters: scale not given: the % may be the effect or the level left; conditions: route intraperitoneal
Mus musculus [20] = assay: Inhibition of Akt2 in mouse lung at 50 mg/kg, ip administered three times a day after 10 hrs by IP kinase assay; assay type: functional; parameters: scale not given: the % may be the effect or the level left; conditions: route intraperitoneal
Mus musculus [21] = assay: Inhibition of AKT2 in A2780 cells xenografted mouse tumor tissue at 50 mg/kg, twice daily after 2 hrs by IP kinase assay; assay type: functional; conditions: route intraperitoneal
Mus musculus [22] = assay: Inhibition of Akt1 in mouse lung at 50 mg/kg, ip administered three times a day after 16 hrs by IP kinase assay; assay type: functional; parameters: scale not given: the % may be the effect or the level left; conditions: route intraperitoneal
Mus musculus [23] = assay: Inhibition of AKT1 in A2780 cells xenografted mouse tumor tissue at 50 mg/kg, twice daily after 2 hrs by IP kinase assay; assay type: functional; conditions: route intraperitoneal
[24] = Partition coefficient, log P of the compound; assay type: physicochemical; conditions: octanol/water
[25] = Drug concentration in mouse blood at 50 mg/kg, ip administered three times a day after 10 hrs; assay type: ADME, organism-based; parameters: dose 50 mg/kg, route intraperitoneal; conditions: whole blood, read-out: Drug uptake
Mus musculus [26] = assay: Inhibition of Akt1 in mouse lung at 50 mg/kg, ip administered three times a day after 10 hrs by IP kinase assay; assay type: functional; parameters: scale not given: the % may be the effect or the level left; conditions: route intraperitoneal

T1 sequence (P31749 whole entry): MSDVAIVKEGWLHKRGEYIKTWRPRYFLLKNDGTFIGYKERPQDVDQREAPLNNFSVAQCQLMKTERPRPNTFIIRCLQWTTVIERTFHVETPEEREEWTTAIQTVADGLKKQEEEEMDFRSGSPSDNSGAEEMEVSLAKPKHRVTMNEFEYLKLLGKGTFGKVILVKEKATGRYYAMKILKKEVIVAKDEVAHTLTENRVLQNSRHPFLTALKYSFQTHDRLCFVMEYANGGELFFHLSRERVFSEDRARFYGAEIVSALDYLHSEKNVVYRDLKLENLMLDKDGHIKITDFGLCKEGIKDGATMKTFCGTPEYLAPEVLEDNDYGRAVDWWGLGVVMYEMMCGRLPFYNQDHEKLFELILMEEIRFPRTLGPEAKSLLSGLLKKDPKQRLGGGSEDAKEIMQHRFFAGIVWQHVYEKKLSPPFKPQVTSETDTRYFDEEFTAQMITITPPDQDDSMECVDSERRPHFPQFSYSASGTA

| Compound | IC50 [1] | IC50 [2] | IC50 [3] | IC50 [4] | IC50 [5] | IC50 [6] | IC50 [7] | also measured |
| --- | --- | --- | --- | --- | --- | --- | --- | --- |
| c1ccc(-c2cc3ncccc3nc2-c2ccc(CN3CCC(c4n[nH]c(-c5ccccn5)n4)CC3)cc2)cc1 | > 50000 nM | 30 nM | 70 nM | > 50000 nM | 1480 nM | 5.6 nM | > 50000 nM |  |
| c1ccc(-c2nc3ccccc3nc2-c2ccc(CN3CCC(c4cc(-c5ccncc5)[nH]n4)CC3)cc2)cc1 |  |  | 1080 nM |  |  | 75 nM |  | logD [8]: 2.71; IC50 [9]: 11300 nM |
| c1ccc(-c2cc3cccnc3nc2-c2ccc(CN3CCC(c4cc(-c5cccnc5)[nH]n4)CC3)cc2)cc1 | > 50000 nM |  | 900 nM | > 50000 nM |  | 250 nM | > 50000 nM |  |
| c1ccc(-c2cc(C3CCN(Cc4ccc(-c5nc6ncccc6cc5-c5ccccc5)cc4)CC3)n[nH]2)cc1 | > 50000 nM |  | 1600 nM | > 50000 nM |  | 470 nM | > 50000 nM |  |
| c1ccc(-c2cc3ccncc3nc2-c2ccc(CN3CCC(c4n[nH]c(-c5ccccn5)n4)CC3)cc2)cc1 | > 50000 nM | 31 nM | 160 nM | > 50000 nM | 981 nM | 21 nM | > 50000 nM |  |
| O=C1N=CC=C2N=C(c3ccc(CN4CCC(c5n[nH]c(-c6ccccn6)n5)CC4)cc3)C(c3ccccc3)=CC12 (configuration not stated) | > 50000 nM | 16 nM | 42 nM | > 50000 nM | 266 nM | 3.5 nM | > 50000 nM | concentration at 16 h [10]: 2600 nM; inhibition in vivo at 50 mg/kg (Mus musculus [11]): 80%; inhibition in vivo at 50 mg/kg (Mus musculus [12]): 75%; IC50 [13]: 5610 nM; Activity (Mus musculus [14]): 91%; half-life [15]: 3.8 h; fraction unbound (Homo sapiens): 0.027; Activity (A2780): Active; concentration at 24 h [16]: 700 nM; clearance [17]: 4.6 mL/min/kg; Activity (Mus musculus [18]): 100%; Activity (Mus musculus [19]): 86%; Activity (Mus musculus [20]): 41%; inhibition in vivo at 50 mg/kg (Mus musculus [21]): 54%; Activity (Mus musculus [22]): 62%; inhibition in vivo at 50 mg/kg (Mus musculus [23]): 95%; logP [24]: 3.51; concentration at 10 h [25]: 13000 nM; IC50 [9]: 1900 nM; Activity (Mus musculus [26]): 21% |
| O=c1ccc(-c2cc(C3CCN(Cc4ccc(-c5nc6ncccc6cc5-c5ccccc5)cc4)CC3)n[nH]2)c[nH]1 | > 50000 nM | 132 nM | 83 nM | > 50000 nM | 613 nM | 34 nM | > 50000 nM |  |
| c1ccc(-c2cc3cccnc3nc2-c2ccc(CN3CCC(c4cc(-c5ccccn5)[nH]n4)CC3)cc2)cc1 | > 50000 nM | 149 nM | 280 nM | > 50000 nM | 995 nM | 44 nM | > 50000 nM |  |
| c1ccc(-c2cc3cccnc3nc2-c2ccc(CN3CCC(c4n[nH]c(-c5ccccn5)n4)CC3)cc2)cc1 | > 50000 nM | 83 nM | 220 nM | > 50000 nM | 1080 nM | 45 nM | > 50000 nM |  |
| CCN(CC)CCNC(=O)c1ccc2nc(-c3ccccc3)c(-c3ccc(CN4CCC(n5c(=O)[nH]c6ccccc65)CC4)cc3)nc2c1 |  | 527 nM |  |  | 730 nM |  |  |  |
| c1ccc(-c2cc3cnccc3nc2-c2ccc(CN3CCC(c4n[nH]c(-c5ccccn5)n4)CC3)cc2)cc1 | > 50000 nM | 21 nM | 210 nM | > 50000 nM | 2680 nM | 7.4 nM | > 50000 nM |  |
| c1ccc(-c2cc3cccnc3nc2-c2ccc(CN3CCC(c4cc(-c5ccncc5)[nH]n4)CC3)cc2)cc1 | > 50000 nM | 369 nM | 260 nM | > 50000 nM | 1450 nM | 120 nM | > 50000 nM |  |
